Data on eleven substances can be found in patent US7989585B2, “Chronic treatment regimen using glucagon-like insulinotropic peptides” (Eli Lilly and Company, priority 2000, dated 2011).

No end group written: not given here.

One data set addresses T1, human GLP-1 receptor (Homo sapiens, UniProt P43220).
T1 construct: expressed in transfected cells; host or cells: HEK-293 Aurora CRE-BLAM cells
The experiment in a line: In vitro potency assay (CRE-BLAM fluorescence assay). Type of data set: cell-based. The conditions noted are these: for In vitro activity relative to Val^8-GLP-1(7-37)OH: from EC50, HEK-293 Aurora CRE-BLAM cells, Val^8-GLP-1(7-37)OH control = 1; for potency higher than Val^8-GLP-1(7-37)OH: in vitro potency, approximate. From the text:
The assay is discussed in more detail on page 17 and in example 3.
These HEK-293 cells have stably integrated a DNA vector having a cAMP response element (CRE) driving expression of the β-lactamase (BLAM) gene. […] The assay is further described in Zlokarnik, et al. (1998) Science 279:84-88 (See also Example 3).
The day after seeding, the medium is replaced with plasma free medium.

For data set [1] the following is noted: cited from earlier work.

T1 sequence (P43220 24-463): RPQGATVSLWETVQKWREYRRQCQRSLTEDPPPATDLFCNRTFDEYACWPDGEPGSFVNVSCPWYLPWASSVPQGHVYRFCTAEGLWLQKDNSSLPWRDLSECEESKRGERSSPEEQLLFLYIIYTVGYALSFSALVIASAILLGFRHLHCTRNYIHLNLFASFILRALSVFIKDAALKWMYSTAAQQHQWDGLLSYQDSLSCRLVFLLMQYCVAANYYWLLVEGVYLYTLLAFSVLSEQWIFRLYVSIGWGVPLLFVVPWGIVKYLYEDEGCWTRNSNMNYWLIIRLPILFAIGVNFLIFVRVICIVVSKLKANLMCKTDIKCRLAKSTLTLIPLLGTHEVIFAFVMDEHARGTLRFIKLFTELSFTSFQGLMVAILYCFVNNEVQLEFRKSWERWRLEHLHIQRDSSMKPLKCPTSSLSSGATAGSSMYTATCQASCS

Consider “Arg^34Lys^26-(N-ε-(γ-Glu(N-α-hexadecanoyl)))-GLP-1(7-37) [reference compound]”, for which, on human GLP-1 receptor, the “In vitro activity relative to Val^8-GLP-1(7-37)OH” value is on record as 1.92.
Take Exendin-4 [reference compound]: in the data set with human GLP-1 receptor, the “In vitro activity relative to Val^8-GLP-1(7-37)OH” value is on record as 4.5 and the “potency higher than Val^8-GLP-1(7-37)OH” value is “approximately 5 fold”.
As to GLP-1(7-37)OH, in data set [1] (2.4 pmol/kg/min (Toft-Nielsen et al.)), the “intact GLP-1 levels” value was around 22.5 picomolar. Further, the “plasma levels of intact GLP-1” value in data set [1] (continuous administration 0.75 pmol/kg/min for 180 min, last 120 min of treatment (Naslund et al.)) was “approximately 20 picomolar”.
As for “Gly^8-GLP-1(7-37)OH (HGEGTFTSDVSSYLEGQAAKEFIAWLVKGRG-OH; UniProt P01275 98-128, looked up, variant A8G) [GLP-1 analog]”, in the data set with human GLP-1 receptor, the “In vitro activity relative to Val^8-GLP-1(7-37)OH” value is on record as 1.67.
Same read-out and setting: the result for Val^8-Arg^26-GLP-1(7-37)OH reads 1.47.
On the same count and under the same terms, the result for Val^8-GLP-1(7-36)NH2 reads 1.06.
Regarding Val^8-Glu^22-GLP-1(7-37)OH, at human GLP-1 receptor, the “In vitro activity relative to Val^8-GLP-1(7-37)OH” value amounted to 3.33 and the “potency higher than Val^8-GLP-1(7-37)OH” value is “approximately 3 fold”.
With Val^8-Leu^16-GLP-1(7-37)OH, the “In vitro activity relative to Val^8-GLP-1(7-37)OH” value at human GLP-1 receptor was determined as 1.13.
On to Val^8-Lys^22-GLP-1(7-37)OH, for which the “In vitro activity relative to Val^8-GLP-1(7-37)OH” value on human GLP-1 receptor is recorded as 1.22.
Regarding Val^8-Trp^12-GLP-1(7-37)OH, at human GLP-1 receptor, the “In vitro activity relative to Val^8-GLP-1(7-37)OH” value stood at 1.07.
With Val^8-Tyr^12-GLP-1(7-37)OH, the “In vitro activity relative to Val^8-GLP-1(7-37)OH” value on human GLP-1 receptor is 1.73.
